Data taken from patent publication US5057427A, “Method for resolution of stereoisomers” (Sepracor, Inc., priority 1988, dated 1991).
≈ marks a conversion by molar mass, not a printed value. Structures can show the parent of a compound that is named as a salt.

Tests used:
[1] = tested on: protease Prozyme 6 (Enzyme F); test: Asymmetric hydrolysis in an extractive dispersion reactor (hexane) with Enzyme F; assay type: biochemical, Asperqillus oryzae; conditions: 100 mg Prozyme 6, 3.38 gm ester in 100 ml 0.2 M sodium phosphate buffer pH 7.0 and 100 ml hexane, room temperature, 3.5 hours
Procedure: In this Example, the hexane was dispersed in the reaction vessel to extract the inhibitory ibuprofen acid as it is formed. The reaction was started by adding 100 mg of the protease from the fungus Asperqillus oryzae (from Amano Enzyme Corporation, Prozyme 6, 60,000 units per mg of solid).
After 3.5 hours at room temperature with vigorous stirring, the solution was acidified to pH 2 and extracted with 2 volumes of hexane. The aqueous phase was saved for subsequent workup. The hexane phase was dried over MgSO4 and evaporated to dryness. The resolved ibuprofen product so recovered consisted of 490 mg of white powder, indicating 24% conversion. The optical rotation was -0.568° (c=1.015 in ethanol), indicating the R isomer of ibuprofen.

[2] = molecular target: T1, Protease XVI: from Bacillus subtilis (Enzyme C) (Bacillus subtilis, UniProt P04189); test: Homogeneous aqueous enzymatic resolution (ester hydrolysis) with Enzyme C; assay type: biochemical; conditions: acid product; 100 mg enzyme C, 10 mmol ester in 100 ml 0.2 M phosphate buffer pH 7.0, 20-22° C., 20 hours
T1 sequence (P04189 107-381): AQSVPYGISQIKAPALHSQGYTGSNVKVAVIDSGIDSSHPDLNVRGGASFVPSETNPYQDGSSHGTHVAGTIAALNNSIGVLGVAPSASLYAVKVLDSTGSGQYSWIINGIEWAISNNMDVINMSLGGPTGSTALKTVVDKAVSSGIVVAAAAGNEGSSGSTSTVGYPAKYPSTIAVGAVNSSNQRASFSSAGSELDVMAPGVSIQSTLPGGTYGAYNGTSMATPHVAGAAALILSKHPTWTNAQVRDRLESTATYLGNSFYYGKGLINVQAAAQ

[3] = molecular target: T2, Protease XXVII: "Nagarse" (Enzyme D) (Bacillus amyloliquefaciens, UniProt P00782); test: Homogeneous aqueous enzymatic resolution (ester hydrolysis) with Enzyme D; assay type: biochemical; conditions: 100 mg enzyme D, 10 mmol ester in 100 ml 0.2 M phosphate buffer pH 7.0, 20-22° C., 20 hours
T2 sequence (P00782 108-382): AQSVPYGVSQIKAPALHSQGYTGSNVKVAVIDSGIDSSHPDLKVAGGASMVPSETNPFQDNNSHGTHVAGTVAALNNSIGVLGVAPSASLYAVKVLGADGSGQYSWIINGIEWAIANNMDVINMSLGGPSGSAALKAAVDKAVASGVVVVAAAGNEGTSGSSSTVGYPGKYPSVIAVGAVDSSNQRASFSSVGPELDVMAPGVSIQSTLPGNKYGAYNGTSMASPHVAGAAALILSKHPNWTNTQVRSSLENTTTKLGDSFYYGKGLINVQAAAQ

[4] = molecular target: T3, Protease VIII: "Subtilopeptidase A" (subtilisin Carlsberg) (Enzyme B) (Bacillus licheniformis, UniProt P00780); test: Homogeneous aqueous enzymatic resolution (ester hydrolysis) with Enzyme B; assay type: biochemical; conditions: 100 mg enzyme B, 10 mmol ester in 100 ml 0.2 M phosphate buffer pH 7.0, 20-22° C., 20 hours
T3 sequence (P00780 106-379): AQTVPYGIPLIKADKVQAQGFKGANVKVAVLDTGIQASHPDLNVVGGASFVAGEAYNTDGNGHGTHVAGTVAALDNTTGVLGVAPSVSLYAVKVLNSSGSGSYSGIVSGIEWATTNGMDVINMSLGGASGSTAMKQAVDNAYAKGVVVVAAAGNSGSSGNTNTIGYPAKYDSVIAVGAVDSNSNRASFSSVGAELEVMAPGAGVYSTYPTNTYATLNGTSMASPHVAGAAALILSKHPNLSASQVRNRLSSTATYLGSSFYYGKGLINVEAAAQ

[5] = tested on: Protease XXIII: from Aspergillus oryzae (Enzyme A); test: Homogeneous aqueous enzymatic resolution (ester hydrolysis) with Enzyme A; conditions: 100 mg enzyme A, 10 mmol ester in 100 ml 0.2 M phosphate buffer pH 7.0, 20-22° C., 20 hours
Procedure: 10.0 millimole (mmol) of ibuprofen substrate ester 1 (the methyl sulfonate derivative) was dissolved in 100 ml of 0.2 M phosphate buffer of the appropriate cation (sodium or potassium, to be the same as the substrate counterion) at pH 7.0. 100 mg of enzyme A, as the
commercial preparation, was added directly to this solution, and the reaction mixture was capped and then shaken briefly until all the enzyme preparation had dispersed or dissolved. The reaction mixture was then allowed to stand at ambient temperature (20°-22° C.) for 20 hours. […] The combined organic layers were backwashed twice with one volume of water, once with one volume of saturated NaCl solution, and then dried over MgSO4.
Evaporation of the ether under reduced pressure left the resolved ibuprofen acid product; no other purification was performed. The optical rotation was measured in EtOH at a concentration c=1.0 for the ibuprofen acid product.
In this Example, 0.010 mol of ibuprofen ester 3 (the propyl sulfonate derivative) was dissolved in 100 ml 0.2 M sodium phosphate buffer at pH 7.8, and 150 mg of the commercial enzyme A preparation was added. The reaction was then handled as described for Examples 6.2.1.1-6.2.1.7.
In this Example, 0.010 mol of ibuprofen ester 2 (the ethyl sulfonate ester in the form of its potassium salt) were dissolved in 125 ml of 0.2 M sodium phosphate buffer at pH 7.0, and 150 mg of enzyme A was added to the reaction mixture as the commercially supplied preparation. The reaction was allowed to proceed for 18 hours, and the resulting product mixture was then worked-up as described above for Examples 6.2.1.1-6.2.1.7.
150 mg of Protease XXIII (A), as the commercially available preparation, was added to the reaction mixture, the reaction vessel was capped, and the entire heterogeneous reaction mixture was shaken in a wrist-action shaker for 18 hours. […] This mixture was then extracted twice with 200 ml of diethyl ether. The combined organic layers were backwashed twice with one volume of water, once with one volume of saturated NaCl, and the organic phase was then dried over MgSO4. Evaporation of the ether under reduced pressure left the resolved naproxen acid. No further purification was performed. The optical rotation of the product was measured in CHCl3 at a concentration c=1.0.
0.010 mol of naproxen ester 8 (the potassium salt of the ethyl sulfonate ester) was dispersed in 125 ml of 0.2 M sodium phosphate buffer at pH 7.8. 150 mg of enzyme A, as the commercially available preparation, were added, and the reaction handled as described in Example 6.2.1.1.
0.010 mol of ibuprofen ester 6 (the compound) were dissolved in 100 ml of 0.2 M sodium phosphate buffer at pH 7.0. 100 mg of enzyme A was added as the commercially available preparation, and the reaction handled as described above in Examples 6.2.1.1-6.2.1.7.
2.0 gm (0.0058 mole) of naproxen ester 9 (the sulfomethyl compound) was dissolved in 400 ml of 50 mM sodium phosphate buffer at pH 7.5. To the reaction were added 100 mg of Protease XXIII (A) as the commercially available preparation. After the enzyme had dissolved, the reaction mixture was incubated at 25 degrees for 16 hours. The reaction mixture was then acidified to pH 1-2 by the careful dropwise addition of concentrated HCl, and then it was extracted with ether (3×150 ml). The aqueous layer was retained. The combined organic layers were backwashed with water (2×100 ml), and these aqueous washings were added to the previously retained aqueous layer of the reaction. The ether layer was then washed once with 100 ml of brine, and dried over MgSO4.

[6] = tested on: protease Prozyme 6 (Enzyme F); test: Homogeneous aqueous enzymatic resolution (ester hydrolysis) with Enzyme F; assay type: biochemical, Asperqillus oryzae; conditions: 100 mg protease (F), 3.22 gm ester in 100 ml 0.2 M sodium phosphate buffer pH 7.0, room temperature, 20 hours
Procedure: (Prozyme 6) (F) added. The enzymatic reaction mixtures were capped and briefly shaken until all the substrate had dissolved, and the enzyme had completely dissolved or dispersed. […] Evaporation of the ether left a white solid. Rotations were measured at c=1 in CHCl3.
The enzymatic reaction mixtures were capped and briefly shaken until all the substrate had dissolved, and the enzyme had completely dissolved or dispersed. […] Evaporation of the ether left a white solid. Rotations were measured at c=1 in CHCl3.
The reaction was started by adding 100 mg of the protease (F) from the fungus Asperqillus oryzae (from Amano Enzyme Corporation, Prozyme 6, 60,000 units per mg of solid).
After 20 hours at room temperature, the solution was acidified to pH 2 and extracted with 3 volumes of diethyl ether. The aqueous phase was saved for subsequent workup. The ether phase was washed with two volumes of distilled water and then one volume of saturated sodium chloride, and then it was dried over MgSO4 and subsequently evaporated to dryness. The resolved ibuprofen product recovered was 930 mg of white powder, indicating 45% conversion of racemic ester to acid. The optical rotation was -0.580° (measured at c=1 in ethanol), indicating the R isomer of ibuprofen.
35 mg of protease Enzyme F, as the commercial preparation Prozyme 6, were added to the aqueous solution. The reaction flask was capped, and briefly shaken until all the enzyme had dissolved or dispersed. […] The resulting mixture was diluted with one volume of water and was extracted with diethyl ether (2 times 200 ml). The ether layers were combined and backwashed with water (2 times 200 ml), saturated NaCl solution (200 ml), and then dried over MgSO4.
In this control run, a 0.5 M ester solution of (1) was prepared in 325 ml of 0.1 M sodium phosphate buffer (pH 7.0). The reaction was started by adding 3 gm of the above enzyme (F). The pH was controlled at 7.0 with 8.22 M sodium hydroxide. After 6.49 hours at 30° C., 6.63 ml of hydroxide were added, indicating 37.7% conversion. […]

[7] = tested on: Protease XIV: from Streptomyces griseus (Enzyme G); test: Rates of hydrolysis of the two enantiomers (pH stat), Enzyme G; assay type: biochemical; conditions: for Rate (rate of hydrolysis): 50 mM ester, 50 mM buffer pH 7.6, 0.1 ml of 50 mg/ml enzyme G
Procedure: (§1) 15 ml of a solution containing one enantiomer of the ester at a concentration of 50 mM, and Na3 PO4 buffer at 50 mM and pH 7.6 was observed using a pH stat device. 0.1 ml of a 50 mg/ml solution of protease enzyme G, made up from the commercially available preparation in 50 mM Na buffer at pH 7.6, were added. Rates of hydrolysis of both enantiomers of the ester compound were determined for the protease enzyme. The ratio of the rates of hydrolysis for the two enantiomers for the two enantiomers with respect to the enzyme indicate the stereospecificity of that enzyme's hydrolytic action on the racemic mixture of the ester. No evidence for the hydrolysis of the acetylthio ester portion of the substrate molecule was found.

[8] = molecular target: T2, Protease XXVII: "Nagarse" (Enzyme D); test: Rates of hydrolysis of the two enantiomers (pH stat), Enzyme D; assay type: biochemical; conditions: 50 mM ester, 50 mM buffer pH 7.6, 0.1 ml of 50 mg/ml enzyme D
Procedure: as §1, with “of” for “of protease”, “enzyme D,” for “enzyme G,”, “mM Na3 PO4” for “mM Na”, “the” for “the protease”, “the thioacetyl” for “the acetylthio”

[9] = tested on: Protease XXIV: bacterial protease (Enzyme H); test: Rates of hydrolysis of the two enantiomers (pH stat), Enzyme H; assay type: biochemical; conditions: for Rate (rate of hydrolysis): 50 mM ester, 50 mM buffer pH 7.6, 0.1 ml of 50 mg/ml Enzyme H
Procedure: as §1, with “of Enzyme H,” for “of protease enzyme G,”, “mM Na3 PO4” for “mM Na”, “the” for “the protease”

[10] = tested on: Protease XXIII: from Aspergillus oryzae (Enzyme A); test: Rates of hydrolysis of the two enantiomers (pH stat), Enzyme A; assay type: biochemical; conditions: for Rate (rate of hydrolysis): 50 mM ester, 50 mM buffer pH 7.6, 0.1 ml of 50 mg/ml enzyme A
Procedure: as §1, with “Na” for “Na3 PO4”, “of” for “of protease”, “A,” for “G,”, “Na3 PO4” for “Na”, “the” for “the protease”

[11] = molecular target: T3, Protease VIII: "Subtilopeptidase A" (subtilisin Carlsberg) (Enzyme B); test: Rates of hydrolysis of the two enantiomers (pH stat), Enzyme B; assay type: biochemical; conditions: 50 mM ester, 50 mM buffer pH 7.6, 0.1 ml of 50 mg/ml enzyme B
Procedure: as §1, with “Na” for “Na3 PO4”, “of” for “of protease”, “B,” for “G,”, “the” for “the protease”

[12] = Solubility by absorbance of saturated solutions at 262 nm; assay type: physicochemical; conditions: saturated solution, pH 7, 5 mM phosphate buffer, room temperature

CC(C)Cc1ccc(C(C)C(=O)OCS(=O)(=O)O)cc1 (centres unmarked) [Compound 1, Sodium Salt of 4-Sulfomethyl Ester of 2-(4-Isobutylphenyl)propanoic Acid]
conversion [1]: 24% | % e.e. [2]: 70.7% | % CONVERSION [3]: 34.0% | % e.e. ([3]; acid product): 37.7% | % CONVERSION [4]: 29.1% | % e.e. ([4]; acid product): 44.6% | % CONVERSION [5]: 37.9% | % e.e. ([5]; acid product): > 99% | conversion of racemic ester to acid [6]: 45%

CC(=O)SC[C@@H](C)C(=O)OCS(=O)(=O)O [Compound 14, Potassium Salt of the Sulfomethyl Ester of D-(-)-S-3-Acetylthio-2-methylpropanoic Acid]
Rate (rate of hydrolysis) [7]: 63 umols/hr/mg | Rate (rate of hydrolysis) [8]: 27 umols/hr/mg | Rate (rate of hydrolysis) [9]: 61 umols/hr/mg | Rate (rate of hydrolysis) [10]: 5.3 umols/hr/mg | Rate (rate of hydrolysis) [11]: 65 umols/hr/mg

CC(=O)SC[C@H](C)C(=O)OCS(=O)(=O)O [Compound 15, Potassium Salt of the Sulfomethyl Ester of L-(+)-S-3-Acetylthio-2-methylpropanoic Acid]
Rate (rate of hydrolysis) [7]: 105 umols/hr/mg | Rate Ratio L/D ([7]; enzyme G, pH 7.6): 1.7 | Rate (rate of hydrolysis) [8]: 29 umols/hr/mg | Rate (rate of hydrolysis) [9]: 65 umols/hr/mg | Rate Ratio L/D ([9]; Enzyme H, pH 7.6): 1.1 | Rate (rate of hydrolysis) [10]: 12 umols/hr/mg | Rate Ratio L/D ([10]; enzyme A, pH 7.6): 2.3 | Rate (rate of hydrolysis) [11]: 135 umols/hr/mg

COCCOC(=O)C(C)c1ccc(CC(C)C)cc1 (centres unmarked) [Methoxyethyl ester of ibuprofen]
Solubility [12]: 180 µM (≈ 47.6 µg/mL)
